ChEMBL document CHEMBL1137202, “Synthesis and biological activity of new potential agonists for the human adenosine A2A receptor” (J Med Chem, 2004)

What was measured:
Cavia porcellus [1] = species on record: Cavia porcellus; assay: Concentration-Relaxation Studies was exerted on Guinea Pig Tracheal Rings Precontracted by Carbachol by the compound in presence of Adenosine antagonist CSC ( E-4 M); format: functional, organism-based; conditions: Trachea
Cavia porcellus [2] = species on record: Cavia porcellus; assay: Concentration-Relaxation Studies was exerted on Guinea Pig Tracheal Rings Precontracted by Carbachol by the compound in presence of Adenosine antagonist DMPX ( E-4 M); format: functional, organism-based; conditions: Trachea
Cavia porcellus [3] = species on record: Cavia porcellus; assay: Concentration-Relaxation Studies was exerted on Guinea Pig Tracheal Rings Precontracted by Carbachol by the compound in presence of Adenosine antagonist Alloxazine ( E-4 M); format: functional, organism-based; conditions: Trachea
Adenosine receptor A1 = molecular target: T1, Adenosine receptor A1 (Homo sapiens, UniProt P30542); assay: Inhibition of [3H]DPCPX binding to human adenosine A1 receptor expressed in CHO cells; format: cell-based
T1 sequence (P30542 whole entry): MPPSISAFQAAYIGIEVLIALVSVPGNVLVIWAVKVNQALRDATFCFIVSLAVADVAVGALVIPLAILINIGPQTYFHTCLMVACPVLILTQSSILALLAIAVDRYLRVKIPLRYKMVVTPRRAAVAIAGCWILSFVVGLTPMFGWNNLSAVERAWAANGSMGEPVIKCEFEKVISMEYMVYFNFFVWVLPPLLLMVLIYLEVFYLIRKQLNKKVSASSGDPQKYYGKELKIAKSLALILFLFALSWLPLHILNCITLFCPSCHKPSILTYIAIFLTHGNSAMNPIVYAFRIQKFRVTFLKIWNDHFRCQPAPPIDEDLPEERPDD

Adenosine receptor A2a [4] = molecular target: T2, Adenosine receptor A2a (Homo sapiens, UniProt P29274)
Description: Potency against cAMP formation in CHO cells expressing recombinant human A2A receptor

Adenosine receptor A2a [5] = molecular target: Adenosine receptor A2a (Rattus norvegicus, UniProt P30543)
Description: Efficacy against phenylephrine precontracted tissue relaxation in rat aorta

Adenosine receptor A2a [6] = molecular target: T2, Adenosine receptor A2a; assay: biochemical
Description: Inhibition of [3H]ZM-241385 binding to human adenosine A2A receptor expressed in HeLa cells

Cavia porcellus [7] = species on record: Cavia porcellus; assay: Concentration-Relaxation Studies was exerted on Guinea Pig Tracheal Rings Precontracted by Carbachol by the compound in presence of Adenosine antagonist 8-PT ( E-4 M); format: functional, organism-based; conditions: Trachea
Adenosine receptor A2b [8] = molecular target: T3, Adenosine receptor A2b (Homo sapiens, UniProt P29275); assay: Potency against cAMP formation in CHO cells expressing recombinant human A2B receptor; format: functional, cell-based
T3 sequence (P29275 whole entry): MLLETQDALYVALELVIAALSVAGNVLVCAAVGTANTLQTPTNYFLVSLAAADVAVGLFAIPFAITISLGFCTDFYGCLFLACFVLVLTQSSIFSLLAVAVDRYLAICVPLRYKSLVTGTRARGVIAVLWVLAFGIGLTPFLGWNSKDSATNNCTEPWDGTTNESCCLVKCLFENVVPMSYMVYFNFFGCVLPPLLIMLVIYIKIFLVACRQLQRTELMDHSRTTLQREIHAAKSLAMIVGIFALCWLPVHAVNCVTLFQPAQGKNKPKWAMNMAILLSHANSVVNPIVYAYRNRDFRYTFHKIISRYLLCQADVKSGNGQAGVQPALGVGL

Adenosine receptor A2b [9] = molecular target: T3, Adenosine receptor A2b; assay: Inhibition of [3H]DPCPX binding to human adenosine A2B receptor expressed in HEK293 cells; format: cell-based
Adenosine receptor A3 = molecular target: T4, Adenosine receptor A3 (Homo sapiens, UniProt P0DMS8); assay: Inhibition of [3H]NECA binding to human adenosine A3 receptor expressed in HeLa cells; format: cell-based
T4 sequence (P0DMS8 whole entry): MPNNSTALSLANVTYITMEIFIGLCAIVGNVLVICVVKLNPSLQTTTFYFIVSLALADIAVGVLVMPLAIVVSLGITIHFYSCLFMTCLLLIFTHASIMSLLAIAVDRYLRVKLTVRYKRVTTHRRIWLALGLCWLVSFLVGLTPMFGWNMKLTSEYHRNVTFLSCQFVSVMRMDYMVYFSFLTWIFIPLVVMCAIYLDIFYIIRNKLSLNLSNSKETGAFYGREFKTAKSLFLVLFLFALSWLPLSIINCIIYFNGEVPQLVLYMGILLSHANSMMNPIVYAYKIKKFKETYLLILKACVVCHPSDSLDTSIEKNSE

[10] = molecular target: Adenosine receptor A2b (Cavia porcellus); assay: Relative efficacy against phenylephrine precontracted tissue relaxation in Guinea pig aorta
[11] = system: Adenosine receptor A2b (Cavia porcellus); assay: Relative efficacy against phenylephrine precontracted tissue relaxation in Guinea pig aorta compared to NECA

T2 sequence (P29274 whole entry): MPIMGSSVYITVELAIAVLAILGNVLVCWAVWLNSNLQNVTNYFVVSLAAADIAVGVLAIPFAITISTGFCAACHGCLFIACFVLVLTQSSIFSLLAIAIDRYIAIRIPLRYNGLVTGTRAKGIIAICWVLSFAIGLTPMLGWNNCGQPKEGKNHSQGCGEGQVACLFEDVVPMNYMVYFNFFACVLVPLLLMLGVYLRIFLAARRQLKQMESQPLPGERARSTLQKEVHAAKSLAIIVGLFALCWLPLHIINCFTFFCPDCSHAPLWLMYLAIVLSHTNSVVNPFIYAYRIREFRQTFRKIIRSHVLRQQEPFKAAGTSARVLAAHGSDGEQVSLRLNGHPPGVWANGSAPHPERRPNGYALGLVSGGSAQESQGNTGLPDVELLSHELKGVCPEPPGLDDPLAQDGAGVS
Chain of Adenosine receptor A2a (Rattus norvegicus, UniProt P30543) (P30543 whole entry): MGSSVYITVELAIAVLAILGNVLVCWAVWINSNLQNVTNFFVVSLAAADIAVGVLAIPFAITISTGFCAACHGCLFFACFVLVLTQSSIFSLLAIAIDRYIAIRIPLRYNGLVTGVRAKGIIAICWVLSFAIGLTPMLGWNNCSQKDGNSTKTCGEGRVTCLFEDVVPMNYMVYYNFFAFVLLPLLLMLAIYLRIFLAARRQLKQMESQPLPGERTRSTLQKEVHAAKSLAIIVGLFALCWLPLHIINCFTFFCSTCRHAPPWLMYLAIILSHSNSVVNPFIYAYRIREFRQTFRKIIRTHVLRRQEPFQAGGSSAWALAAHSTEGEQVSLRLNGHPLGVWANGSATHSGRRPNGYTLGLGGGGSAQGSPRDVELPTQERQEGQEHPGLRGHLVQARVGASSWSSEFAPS

EC50 (Cavia porcellus [1]) [nM]	EC50 (Cavia porcellus [2]) [nM]	EC50 (Cavia porcellus [3]) [nM]	Ki (Adenosine receptor A1) [nM]	EC50 (Adenosine receptor A2a [4]) [nM]	EC50 (Adenosine receptor A2a [5]) [nM]	Ki (Adenosine receptor A2a [6]) [nM]	EC50 (Adenosine receptor A2b [8]) [nM]	Ki (Adenosine receptor A2b [9]) [nM]	Ki (Adenosine receptor A3) [nM]	EC50 [10] [nM]	Emax [11] [%]	SMILES	EC50 (Cavia porcellus [7]) [nM]
			> 10000	3.1		48	1200	3660	400			CCn1nnc([C@H]2O[C@@H](n3cnc4c(N)nc(N[C@H](CO)Cc5ccc([N+](=O)[O-])cc5)nc43)[C@H](O)[C@@H]2O)n1	
			310	1.6	6.7	5	560	2260	83	1300	125	CCn1nnc([C@H]2O[C@@H](n3cnc4c(N)nc(N[C@H](CO)Cc5ccc(Br)cc5)nc43)[C@H](O)[C@@H]2O)n1	
22000	36000	36000	> 10000	1.4		38	680	1180	130			CCn1nnc([C@H]2O[C@@H](n3cnc4c(N)nc(N[C@H](CO)Cc5ccc(OC)cc5)nc43)[C@H](O)[C@@H]2O)n1	
17000		38000	670	97		270	4700	2720	288			CCn1nnc([C@H]2O[C@@H](n3cnc4c(N)nc(N[C@H](CO)Cc5ccc(Cl)cc5)nc43)[C@H](O)[C@@H]2O)n1	
26000	23000	15000	356	3	4	1			100			CCn1nnc([C@H]2O[C@@H](n3cnc4c(N)nc(N[C@H](C)Cc5ccc(OC)cc5)nc43)[C@H](O)[C@@H]2O)n1	
				8	2.9	5			140			CCn1nnc([C@H]2O[C@@H](n3cnc4c(N)nc(N[C@H](CO)Cc5ccc(O)cc5)nc43)[C@H](O)[C@@H]2O)n1	
570000	340000	550000										Nc1ncnc2c1ncn2[C@@H]1O[C@H](CO)[C@@H](O)[C@H]1O [ADENOSINE]	460000

SMILES	EC50 (Cavia porcellus [1]) [nM]	EC50 (Cavia porcellus [2]) [nM]	EC50 (Cavia porcellus [3]) [nM]	Ki (Adenosine receptor A1) [nM]	EC50 (Adenosine receptor A2a [4]) [nM]	EC50 (Adenosine receptor A2a [5]) [nM]	Ki (Adenosine receptor A2a [6]) [nM]	EC50 (Adenosine receptor A2b [8]) [nM]	Ki (Adenosine receptor A2b [9]) [nM]	Ki (Adenosine receptor A3) [nM]	EC50 [10] [nM]	Emax [11] [%]	EC50 (Cavia porcellus [7]) [nM]
CCn1nnc([C@H]2O[C@@H](n3cnc4c(N)nc(N[C@H](CO)Cc5ccccc5)nc43)[C@H](O)[C@@H]2O)n1 [GW-328267]	51000	46000	88000	369	8.8	10	46						64000
CCNC(=O)[C@H]1O[C@@H](n2cnc3c(N)ncnc32)[C@H](O)[C@@H]1O [NECA]	84000	77000	88000										65000
